Entries after “also recorded” stand apart in the source; their conditions may differ.

For experiment [1], the system named is HUVECs. Kind of experiment: Cell proliferation assay, HUVECs (manual count, Trypan blue exclusion). As to conditions: for HUVEC proliferation: 36 hours. The experiment is classed as cell-based, human. The protocol:
(§1) Cells were seeded at a concentration of 2×10^5 for HUVECs and 2×10^4 for HUVSMCs in serum free media on 12 well plates after detachment. The cells were allowed to adhere overnight in growth media, and then incubated with X-VIVO media (Cambrex) with or without cytokines (10 ng/ml FGF-2 and 2 μg/ml heparin or 10 ng/ml VEGF-A). For HRMEC experiments, cells were seeded at a concentration of 1×10^5 and allowed to settle overnight in 6-cm plates coated with attachment factor (Cell Signaling, Danvers, Mass.). The next day, fresh 10% FBS and EBM medium was added. […] After incubation, HUVEC were detached with collagenase/EDTA and HUVSMC and HRMEC were detached with trypsin/EDTA. The cells were manually counted with a Hemacytometer (Hausser Scientific, Horsham, Pa.) using Trypan blue exclusion.
First, we performed a dose response curve on unstimulated and stimulated serum free HUVECs. […] HUVECs were either unchallenged or challenged with VEGF-A or FGF-2 during the incubation. […] Cell viability was measured at 12, 24, and 36 hours after incubation.

Experiment [2] has as its system HUVSMCs. Kind of experiment: Cell proliferation assay, HUVSMCs (manual count, Trypan blue exclusion). It counts as cell-based, human. The protocol: as §1
Experiment [3] deals with p53. As to conditions: HUVEC, 8 hours, compared to Nutlin-3B or control. As for the experimental part:
(§2) HUVECs and HUVSMCs were incubated at 2×10^6 in X-VIVO media and HRMECs in EBM with 10% FBS under various conditions as reported in the results. Western blot extracts were prepared by lysing cells attached cells in cold RIPA buffer in the presence of protease inhibitors for HUVEC and HUVSMC and passive lysis buffer (Promega, Madison, Wis.) for HRMEC. After sonication and centrifugation to remove cell debris, the protein yield was quantified using the BCA protein assay kit (Pierce Biotechnology Inc., Rockford, Ill.). Normalized cell lysates were then mixed with sample buffer containing 2-mercaptoethanol and SDS and heated for 5 minutes at 95° C. Equal amounts of protein were run on SDS-polyacrylamide gels before being transferred to PVDF membranes. Binding of the primary antibody against p53, p21, and beta actin was detected with enhanced chemiluminescence reagent (Amersham) using HRP-conjugated secondary antibody (1:10,000, Amersham).

Experiment [4] concerns p53. Kind of experiment: p53/p21 immunofluorescence and Western blot in HUVSMCs. It counts as cell-based, human. As to conditions: HUVSMC, 7.5 μM, within 8 hours. The protocol:
as §2
(In general: Immunoblotting shows a protein as a band on a membrane.)

For experiment [5], the system named is HUVECs. Kind of experiment: Flow cytometric analysis for apoptosis (annexin V/propidium iodide), HUVECs. It counts as cell-based, human. As to conditions: HUVEC, 7.5 μM, 24 hours, compared to the control. The source says: (§3) HUVECs were detached with collagenase/EDTA and HUVSMCs were detached with trypsin/EDTA. The cells were then washed twice with PBS, and stained with propidium iodide and annexin V-FITC (Annexin V-FITC apoptosis detection kit I, Beckton Dickinson) according to the manufacturer's instructions.
On the technique in general: A flow cytometer gives signals particle by particle.

The subject of experiment [6] is HUVSMCs. Briefly: Flow cytometric analysis for apoptosis (annexin V/propidium iodide), HUVSMCs. It counts as cell-based, human. As to conditions: HUVSMC, 7.5 μM, 36 hours, compared to control.
Excerpt: as §3

Experiment [7] concerns HUVECs. Briefly: TUNEL assay for apoptosis, HUVECs. It counts as cell-based, human. As to conditions: serum free HUVEC, 7.5 μM, 24 hours, compared to control. The protocol:
HUVECs were plated on collagen coated plastic bottom culture dishes (MatTek Corp., Ashland, Mass.) overnight. […] HRMEC were treated with 15 μM of racemic Nutlin for 24 hours in 10% FBS. The TUNEL assay was performed following instructions provided with the kit (Roche Applied Science, Indianapolis, Ind.). Representative images of the HRMEC experiment were provided with a 4× objective using an Olympus AX70 fluorescence microscope following the addition of a nuclear counter stain. For HUVEC experiments, 5 representative fields with a 20× objective using a Zeiss confocal microscope were captured. 2 masked observers performed cell counts. For wholemount retina staining, TUNEL solution was incubated for 48 hours diluted in PBS plus 0.3% Triton-X 100 after lectin staining.

Experiment [8] has as its system p53 siRNA infected HUVECs. Briefly: Cell viability of p53 siRNA infected HUVECs. It counts as cell-based, human. As to conditions: 7.5 μM, FGF-2, 48 hours; p53 siRNA vs control siRNA. As for the experimental part:
Passage 3 HUVECs were grown to confluence. pRETRO-SUPER and pRETRO-SUPER-p53 viruses were produced by GP2 cells (Clontech, Mountain View, Calif.). Supernatant was filtered and then added to HUVECs in the presence of […] polybrene followed by 1 μg/ml of Puromycin selection for 7 days.
To determine if the p53 pathway is necessary for the observed Nutlin-3 mediated cellular effects, we infected HUVEC with retrovirus expressing either control short interfering RNA (siRNA) or p53 siRNA. […] (A and B) HUVECs were infected with a lentiviral vector expressing p53 siRNA or control siRNA for 48 hours and then underwent Puromycin selection for 72 hours.

The test system of experiment [9] is HUVECs. Kind of experiment: Matrigel tube assay for in vitro angiogenesis. It counts as cell-based, human. As to conditions: FGF-2, 24 hours. The protocol:
Matrigel matrix (Becton Dickinson, San Jose, Calif.) was kept on ice for 24 hours. Then, 200 ill of Matrigel were added to each well of a 24 well culture plate. After hardening the Matrigel at 37° C. for 30 minutes, gels were overlaid with 500 μl of X-VIVO medium containing 3×10^4 HUVECs. […] The effect of Nutlin was inspected 24 hours under an inverted light microscope. Nine overlapping images with a 10× objective were taken of each well to perform tubule length quantification. Adobe Photoshop 7.0 (Adobe Systems Inc., San Jose, Calif.) was used to make a montage image of each well. Each montage image was then imported into LSM Image Browser v3.5 (Carl Zeiss Inc., Thornwood, N.Y.) to measure tubule length. Tubule length was then standardized to the overall pixel area examined. A masked observer assessed all measurements.

Turning to `COc1ccc(C2=N[C@@H](c3ccc(Cl)cc3)[C@@H](c3ccc(Cl)cc3)N2C(=O)N2CCNC(=O)C2)c(OC(C)C)c1` [Nutlin-3A], the “HUVEC growth / cell viability, time course” value in the experiment with HUVECs [1] (7.5 μM, unstimulated, serum free HUVEC, by 36 hours) is on record as “near complete cell death”. Moreover, the HUVEC proliferation result with HUVECs [1] (1, 5 or 10 μM, serum free HUVECs unchallenged or challenged with VEGF-A or FGF-2) is given as “inhibit HUVEC proliferation at all tested doses with greater activity at higher concentrations”. Further, in the experiment on HUVSMCs [2] (7.5 μM, serum free HUVSMCs activated with FGF-2 or 5% FBS, at 48 to 72 hours), the “HUVSMC proliferation, time course” value was “growth inhibited”. The “HUVSMC early response to increasing concentrations” value in the experiment on HUVSMCs [2] (7.5, 15, 30 μM, serum free, unchallenged HUVSMCs, at 36 hours, p>0.05) is given as “did not find an early response”. In addition, the “p53 and p21 protein (Western blot)” value in the experiment on p53 [3] is “increased p53 protein, and its downstream target p21”. Also, in the experiment with p53 [4], the “p53 response (immunofluorescence and Western blot)” value was “initiated a p53 response; also recorded: increased p53 expression”. Moreover, the “double positive annexin V and propidium iodide cells (late apoptosis)” value with HUVECs [5] was “significantly more double positive annexin V and propidium iodide cells”. For the same compound, the “annexin V and propidium iodide staining (apoptosis)” value in the experiment on HUVSMCs [6] is recorded as “no significant difference”. Also, the “TUNEL positive cells (apoptosis)” value with HUVECs [7] was “significantly more cells undergoing apoptosis”. Further, the “cell viability of p53 siRNA infected HUVECs” value in experiment [8] is “p53 siRNA infected cells had become resistant”. In addition, the “dose dependence of capillary tube formation inhibition” value in the experiment on HUVECs [9] (5 and 7.5 μM) is given as “dose dependent”. For the same compound, the “reduction in capillary tube formation” value in the experiment with HUVECs [9] (HUVEC on Matrigel, compared to control) turned out to be 93%.
Regarding `COc1ccc(C2=N[C@H](c3ccc(Cl)cc3)[C@H](c3ccc(Cl)cc3)N2C(=O)N2CCNC(=O)C2)c(OC(C)C)c1` [Nutlin-3B], the HUVEC proliferation entry with HUVECs [1] (10 μM) is recorded as “little effect on HUVEC proliferation”.
